# According to US12077503B2, “Substituted cyclic amides and their use as herbicides” (FMC CORPORATION, priority 2015, dated 2024):
# Assays:
# Assay type in all cases: in vivo
# [1] = system: rice flatsedge (Cyperus iria); experiment: Test F flooded paddy test; design: key: 0 = no effect, 100 = complete control; conditions: Flood
# Excerpt: (§1) Plant species in the flooded paddy test consisted of one stand of 9 or 10 water seeded rice seedlings (Rice, W. S. Jap, Oryza sativa cv. ‘Japonica—M202’ or Rice, W. S. Ind, ‘Indica’), and two stands of 3 or 4 transplanted rice seedlings (Oryza sativa cv. ‘Japonica—M202’), Monochoria (Monochoria vaginalis), sedge, umbrella (small-flower umbrella sedge, Cyperus difformis), hardstem bulrush (Scirpus juncoides), redstem (purple redstem, Ammannia coccinea), rice flatsedge (Cyperus iria), bearded sprangletop (Leptochloa fascicularis), barnyardgrass (Echinochloa crus-galli), waterplantain (common waterplantain, Alisma plantago-aquatica), and late watergrass (Echinochloa oryzicola) grown to the 2 to 2.5 leaf stage for testing. Potted plants were grown in a greenhouse with day/night temperature settings of 30/27° C., and supplemental balanced lighting was provided to maintain a 16-hour photoperiod. At time of treatment, test pots were flooded to 3 cm above the soil surface, treated by application of test compounds directly to the paddy water, and then maintained at that water depth for the duration of the test. Effects of treatments on rice and weeds were visually evaluated by comparison to untreated controls after 21 d. Plant response ratings, summarized in Table F, are based on a scale of 0 to 100 where 0 is no effect and 100 is complete control. A dash (-) response means no test result.
# [2] = system: water seeded rice seedlings (Rice, W. S. Jap, Oryza sativa cv. ‘Japonica—M202’); experiment: Test F flooded paddy test; design: key: 0 = no effect, 100 = complete control; conditions: Flood
# Excerpt: as §1
# [3] = system: sedge, umbrella (small-flower umbrella sedge, Cyperus difformis); experiment: Test F flooded paddy test; design: key: 0 = no effect, 100 = complete control; conditions: Flood
# Excerpt: as §1
# [4] = system: barnyardgrass (Echinochloa crus-galli); experiment: Test F flooded paddy test; design: key: 0 = no effect, 100 = complete control; conditions: Flood
# Excerpt: as §1
# [5] = system: transplanted rice seedlings (Oryza sativa cv. ‘Japonica—M202’); experiment: Test F flooded paddy test; design: key: 0 = no effect, 100 = complete control; conditions: Flood
# Excerpt: as §1
# [6] = system: bearded sprangletop (Leptochloa fascicularis); experiment: Test F flooded paddy test; design: key: 0 = no effect, 100 = complete control; conditions: Flood
# Excerpt: as §1
# [7] = system: Monochoria (Monochoria vaginalis); experiment: Test F flooded paddy test; design: key: 0 = no effect, 100 = complete control; conditions: Flood
# Excerpt: as §1
# [8] = system: late watergrass (Echinochloa oryzicola); experiment: Test F flooded paddy test; design: key: 0 = no effect, 100 = complete control; conditions: Flood
# Excerpt: as §1
# [9] = system: blackgrass (Alopecurus myosuroides); experiment: Test C postemergence; conditions: scale 0 to 100, 0 no effect, 100 complete control
# Excerpt: (§2) Seeds of plant species selected from blackgrass (Alopecurus myosuroides), ryegrass, Italian (Italian ryegrass, Lolium multiflorum), wheat (winter wheat, Triticum aestivum), Galium (catchweed bedstraw, Galium aparine), corn (Zea mays), crabgrass, large (large crabgrass, Digitaria sanguinalis), foxtail, giant (giant foxtail, Setaria faberii), johnsongrass (Sorghum halepense), lambsquarters (Chenopodium album), morningglory (Ipomoea coccinea), nutsedge, yellow (yellow nutsedge, Cyperus esculentus), pigweed (Amaranthus retroflexus), ragweed (common ragweed, Ambrosia elatior), soybean (Glycine max), barnyardgrass (Echinochloa crus-galli), oilseed rape (Brassica napus), waterhemp (common waterhemp, Amaranthus rudis) and velvetleaf (Abutilon theophrasti) were planted into a blend of loam soil and sand and treated preemergence with test chemicals formulated in a non-phytotoxic solvent mixture which included a surfactant.
# (§3) At the same time, plants selected from these crop and weed species and also Kochia (Kochia scoparia), oat, wild (wild oat, Avena fatua), and chickweed (common chickweed, Stellaria media) were planted in pots containing Sunshine Redi-Earth® planting medium comprising spaghnum peat moss, vermiculite, starter nutrients and dolomitic limestone and treated with postemergence applications of test chemicals formulated in the same manner. Plants ranged in height from 2 to 18 cm (1- to 4-leaf stage) for postemergence treatments. Treated plants and controls were maintained in a greenhouse for 13 to 15 d, after which time all species were compared to controls and visually evaluated. Plant response ratings, summarized in Table C, are based on a scale of 0 to 100 where 0 is no effect and 100 is complete control. A dash (-) response means no test result.
# [10] = system: ryegrass, Italian (Italian ryegrass, Lolium multiflorum); experiment: Test C postemergence; conditions: scale 0 to 100, 0 no effect, 100 complete control
# Excerpt: as §2, §3
# [11] = system: barnyardgrass (Echinochloa crus-galli); experiment: Test C postemergence; conditions: scale 0 to 100, 0 no effect, 100 complete control
# Excerpt: as §2, §3
# soybean (Glycine max) = experiment: Test C postemergence; conditions: scale 0 to 100, 0 no effect, 100 complete control
# Excerpt: as §2, §3
# [12] = system: lambsquarters (Chenopodium album); experiment: Test C postemergence; conditions: scale 0 to 100, 0 no effect, 100 complete control
# Excerpt: as §2, §3
# [13] = system: waterplantain (common waterplantain, Alisma plantago-aquatica); experiment: Test F flooded paddy test; conditions: Flood
# Excerpt: as §1
# [14] = system: redstem (purple redstem, Ammannia coccinea); experiment: Test F flooded paddy test; conditions: Flood
# Excerpt: as §1
smiles,measurement,setting,value
"CN1C[C@H](c2ccc(F)c(F)c2)[C@@H](C(=O)Nc2cccc(F)c2F)C1=O [Compound 639, (3S,4S)—N-(2,3-difluorophenyl)-4-(3,4-difluorophenyl)-1-methyl-2-oxo-3-pyrrolidinecarboxamide]","Plant response rating: Flatsedge, Rice",[1]; 32 g ai/ha,0
same,"Plant response rating: Flatsedge, Rice",[1]; 64 g ai/ha,0
same,"Plant response rating: Flatsedge, Rice",[1]; 125 g ai/ha,0
same,"Plant response rating: Flatsedge, Rice",[1]; 250 g ai/ha,0
same,"Plant response rating: Rice, Water Seeded",[2]; 32 g ai/ha,0
same,"Plant response rating: Rice, Water Seed.",[2]; 64 g ai/ha,40
same,"Plant response rating: Rice, Water Seed.",[2]; 125 g ai/ha,50
same,"Plant response rating: Rice, Water Seeded",[2]; 250 g ai/ha,75
same,"Plant response rating: Sedge, Umbrella",[3]; 32 g ai/ha,0
same,"Plant response rating: Sedge, Umbrella",[3]; 64 g ai/ha,0
same,"Plant response rating: Sedge, Umbrella",[3]; 125 g ai/ha,0
same,"Plant response rating: Sedge, Umbrella",[3]; 250 g ai/ha,0
same,Plant response rating: Barnyardgrass,[4]; 32 g ai/ha,90
same,Plant response rating: Barnyardgrass,[4]; 64 g ai/ha,100
same,Plant response rating: Barnyardgrass,[4]; 125 g ai/ha,100
same,Plant response rating: Barnyardgrass,[4]; 250 g ai/ha,100
same,"Plant response rating: Rice, Transplanted",[5]; 32 g ai/ha,0
same,"Plant response rating: Rice, Transplanted",[5]; 64 g ai/ha,15
same,"Plant response rating: Rice, Transplanted",[5]; 125 g ai/ha,25
same,"Plant response rating: Rice, Transplanted",[5]; 250 g ai/ha,40
same,"Plant response rating: Sprangletop, Brdd.",[6]; 32 g ai/ha,85
same,"Plant response rating: Sprangletop, Brdd.",[6]; 64 g ai/ha,85
same,"Plant response rating: Sprangletop, Brdd.",[6]; 125 g ai/ha,95
same,"Plant response rating: Sprangletop, Brdd.",[6]; 250 g ai/ha,98
same,Plant response rating: Monochoria,[7]; 32 g ai/ha,65
same,Plant response rating: Monochoria,[7]; 64 g ai/ha,98
same,Plant response rating: Monochoria,[7]; 125 g ai/ha,100
same,Plant response rating: Monochoria,[7]; 250 g ai/ha,100
same,"Plant response rating: Watergrass, Late",[8]; 32 g ai/ha,100
same,"Plant response rating: Watergrass, Late",[8]; 64 g ai/ha,100
same,"Plant response rating: Watergrass, Late",[8]; 125 g ai/ha,100
same,"Plant response rating: Watergrass, Late",[8]; 250 g ai/ha,100
same,"Plant response rating, Blackgrass",[9]; 31 g ai/ha,0
same,"Plant response rating, Blackgrass",[9]; 62 g ai/ha,0
same,"Plant response rating, Blackgrass",[9]; 125 g ai/ha,5
same,"Plant response rating, Blackgrass",[9]; 250 g ai/ha,10
same,"Plant response rating, Ryegrass, Italian",[10]; 31 g ai/ha,0
same,"Plant response rating, Ryegrass, Italian",[10]; 62 g ai/ha,0
same,"Plant response rating, Ryegrass, Italian",[10]; 125 g ai/ha,5
same,"Plant response rating, Ryegrass, Italian",[10]; 250 g ai/ha,10
same,"Plant response rating, Barnyardgrass",[11]; 31 g ai/ha,20
same,"Plant response rating, Barnyardgrass",[11]; 62 g ai/ha,40
same,"Plant response rating, Barnyardgrass",[11]; 125 g ai/ha,70
same,"Plant response rating, Barnyardgrass",[11]; 250 g ai/ha,85
same,"Plant response rating, Soybean",soybean (Glycine max); 31 g ai/ha,0
same,"Plant response rating, Soybean",soybean (Glycine max); 62 g ai/ha,10
same,"Plant response rating, Soybean",soybean (Glycine max); 125 g ai/ha,15
same,"Plant response rating, Soybean",soybean (Glycine max); 250 g ai/ha,25
same,"Plant response rating, Lambsquarters",[12]; 31 g ai/ha,40
same,"Plant response rating, Lambsquarters",[12]; 62 g ai/ha,75
same,"Plant response rating, Lambsquarters",[12]; 125 g ai/ha,65
same,"Plant response rating, Lambsquarters",[12]; 250 g ai/ha,70
same,Plant response rating: Waterplantain,[13]; 32 g ai/ha,80
same,Plant response rating: Waterplantain,[13]; 64 g ai/ha,80
same,Plant response rating: Waterplantain,[13]; 125 g ai/ha,98
same,Plant response rating: Waterplantain,[13]; 250 g ai/ha,100
same,Plant response rating: Redstem,[14]; 32 g ai/ha,0
same,Plant response rating: Redstem,[14]; 64 g ai/ha,0
same,Plant response rating: Redstem,[14]; 125 g ai/ha,0
same,Plant response rating: Redstem,[14]; 250 g ai/ha,30
